Laboratory results from patent US9187492B2, “Pyripyropene derivative having ACAT2 inhibiting activity and stable to metabolizing enzymes” (School Juridical Person Kitasato Institute, priority 2010, dated 2015).
Like-named read-outs stand apart in the source and are kept apart here.

Assays:
[1] = Stability against metabolizing enzymes in the liver (hepatic microsome); settings: time until remaining amount reached 50%, 37° C.; for half-life at 6 μg/mL: female, Sprague-Dawley (SD), rat, liver microsomes, pH 7.4, Half-life; for Half-life: female SD rat hepatic microsome, 6 μg/mL, pH 7.4
ACAT2 = molecular target: T1, ACAT2 (Mus musculus, UniProt O88908); test: Measurement of ACAT2-inhibiting activity (murine hepatic microsome, [14C]cholesteryl oleate formation); format: biochemical
T1 construct: The resulting sediment was collected as a microsome fraction; from tissue; host or cells: mouse liver (hepatic microsome membrane fraction)
T1 sequence (O88908 1-525): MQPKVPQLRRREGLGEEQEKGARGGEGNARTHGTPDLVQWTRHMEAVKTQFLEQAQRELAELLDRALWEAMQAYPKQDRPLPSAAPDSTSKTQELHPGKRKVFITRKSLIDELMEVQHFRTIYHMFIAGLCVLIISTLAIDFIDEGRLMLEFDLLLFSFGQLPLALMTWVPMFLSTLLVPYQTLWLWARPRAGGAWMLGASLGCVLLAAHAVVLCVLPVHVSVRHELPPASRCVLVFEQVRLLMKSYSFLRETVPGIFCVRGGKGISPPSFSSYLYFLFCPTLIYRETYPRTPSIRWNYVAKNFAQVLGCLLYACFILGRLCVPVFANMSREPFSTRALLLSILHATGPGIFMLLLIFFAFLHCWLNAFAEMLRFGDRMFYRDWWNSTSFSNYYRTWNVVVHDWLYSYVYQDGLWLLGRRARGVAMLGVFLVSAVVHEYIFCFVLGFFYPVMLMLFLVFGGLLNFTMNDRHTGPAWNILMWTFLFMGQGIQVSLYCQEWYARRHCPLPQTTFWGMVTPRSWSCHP
Description: The enzyme source which was used was a membrane fraction derived from murine hepatic microsome. Mouse livers were homogenized in buffer solution A (50 mM Tris HCl solution (pH 7.8), 1 mM ethylene diamine tetraacetate, and 1 mM phenylmethanesulfonyl fluoride) using a Potter-type homogenizer (Tokyo-Riko). The homogenate was centrifuged at 12000×g, and the supernatant was subjected to ultracentrifugation at 100000×g. The resulting sediment was collected as a microsome fraction, and this fraction was adjusted so as to have a protein concentration of 5 mg/mL using buffer solution A.
As a control, 10 μL of methanol were used in place of the pyripyropene derivative.
The chloroform layer was evaporated to dryness and was used to spot a thin layer chromatography plate (silica gel plate, Merck, 0.5 mm thickness). Elution for separation was carried out using hexane/diethyl ether/acetic acid (70:30:1, v/v) as an eluant.
wherein the background is the radioactivity of a thin layer chromatography plate which was not spotted.

[2] = read-out: Inhibitory activity (concentration required for 50% inhibition of ACAT 2 = IC50); murine hepatic microsome membrane fraction, 5 min at 37° C.
[3] = relative to PRD 043; class symbols
[4] = murine hepatic microsome membrane fraction, 5 min at 37° C.; read-out: Inhibitory activity (concentration required for 50% inhibition of ACAT 2 = IC50)

| Specific activity ((IC50 of the test compound)/(IC50 of PRD 043)) (ACAT2; [3]) | IC50 (ACAT2; [4]) [nM] | Compound | half-life at 6 μg/mL [1] [min] | Half-life [1] [h] | IC50 (ACAT2; [2]) [nM] | Specific activity ((IC50 of the test compound)/(IC50 of PRD 043)) (ACAT2; relative to PRD 043; given as number) |
| --- | --- | --- | --- | --- | --- | --- |
| – | – | CC(=O)OCC1(C)C2C[C@H](OC(=O)c3ccccc3C)[C@@]3(C)Oc4cc(-c5cccnc5)oc(=O)c4[C@H](O)C3[C@@]2(C)CC[C@@H]1OC(C)=O (stereo partly shown) [PRD007, reference compound] | 60 | <1 | – | – |
| – | – | CC(=O)OCC1(C)C2C[C@H](OC(=O)c3ccc(C)cc3)[C@@]3(C)Oc4cc(-c5cccnc5)oc(=O)c4[C@H](O)C3[C@@]2(C)CC[C@@H]1OC(C)=O (stereo partly shown) [PRD009, reference compound] | 60 | <1 | – | – |
| – | – | CC(=O)OCC1(C)C2C[C@H](OC(=O)C3CCCCC3)[C@@]3(C)Oc4cc(-c5cccnc5)oc(=O)c4[C@H](O)C3[C@@]2(C)CC[C@@H]1OC(C)=O (stereo partly shown) [PRD021, reference compound] | 60 | <1 | – | – |
| – | – | CCc1ccc(C(=O)O[C@H]2CC3C(C)(COC(C)=O)[C@@H](OC(C)=O)CC[C@]3(C)C3[C@@H](O)c4c(cc(-c5cccnc5)oc4=O)O[C@@]32C)cc1 (stereo partly shown) [PRD024, reference compound] | 60 | <1 | – | – |
| – | – | CC(=O)OCC1(C)C2C[C@H](OC(=O)c3cccc(Br)c3)[C@@]3(C)Oc4cc(-c5cccnc5)oc(=O)c4[C@H](O)C3[C@@]2(C)CC[C@@H]1OC(C)=O (stereo partly shown) [PRD025, reference compound] | 60 | <1 | – | – |
| – | – | CC(=O)OCC1(C)C2C[C@H](OC(=O)c3ccccc3F)[C@@]3(C)Oc4cc(-c5cccnc5)oc(=O)c4[C@H](O)C3[C@@]2(C)CC[C@@H]1OC(C)=O (stereo partly shown) [PRD026, reference compound] | 60 | <1 | – | – |
| – | – | COc1cccc(C(=O)O[C@H]2CC3C(C)(COC(C)=O)[C@@H](OC(C)=O)CC[C@]3(C)C3[C@@H](O)c4c(cc(-c5cccnc5)oc4=O)O[C@@]32C)c1 (stereo partly shown) [PRD043, reference compound] | ≥ 540 | >9 | > 10 | 1 |
| +++ (10<specific activity≦20) | 0.5 to 1 | COc1ccc(C(OC)O[C@H]2CC3C4(C)CO[C@@H](c5ccccc5)O[C@H]4CC[C@]3(C)C3[C@@H](O)c4c(cc(-c5cccnc5)oc4=O)O[C@@]32C)cc1 (stereo partly shown) [PRD073, 1,11-O-benzylidene-1,7,11-trideacetyl-7-O-(1-methoxy-1-p-methoxyphenyl)methylpyripyropene A] | ≥ 540 | >9 | – | – |
| +++ (10<specific activity≦20) | 0.5 to 1 | CC(C)C(=O)OCC1(C)C2C[C@H](OC(=O)C3CCCCC3)[C@@]3(C)Oc4cc(-c5cccnc5)oc(=O)c4[C@H](O)C3[C@@]2(C)CC[C@@H]1OC(=O)C(C)C (stereo partly shown) [PRD074, 7-O-cyclohexanecarbonyl-1,11-O-diisobutyryl-1,7,11-trideacetylpyripyropene A] | ≥ 540 | >9 | – | – |
| +++ (10<specific activity≦20) | 0.5 to 1 | CC(C)C(=O)OCC1(C)C2C[C@H](OC(=O)c3ccc([N+](=O)[O-])cc3)[C@@]3(C)Oc4cc(-c5cccnc5)oc(=O)c4[C@H](O)C3[C@@]2(C)CC[C@@H]1OC(=O)C(C)C (stereo partly shown) [PRD079, 7-O-p-nitrobenzoyl-1,11-O-diisobutyryl-1,7,11-trideacetylpyripyropene A] | ≥ 540 | >9 | – | – |
| +++ (10<specific activity≦20) | 0.5 to 1 | CC12CO[C@@H](c3ccccc3)O[C@H]1CC[C@@]1(C)C2C[C@H](OC(=O)C2CCCCC2)[C@@]2(C)Oc3cc(-c4cccnc4)oc(=O)c3[C@H](O)C12 (stereo partly shown) [PRD080, 1,11-O-benzylidene-7-O-cyclohexanecarbonyl-1,7,11-trideacetylpyripyropene A] | > 540 | – | – | – |
| ++++ (20<specific activity) | 0.5 to 1 | CC(=O)OCC1(C)C2C[C@H](OC(=O)c3ccc(C#N)cc3)[C@@]3(C)Oc4cc(-c5cccnc5)oc(=O)c4[C@H](O)C3[C@@]2(C)CC[C@@H]1OC(=O)C(C)C (stereo partly shown) [PRD119, 7-O-p-cyanobenzoyl-1,7-dideacetyl-1-O-isobutyrylpyripyropene A] | ≥ 540 | >9 | – | – |
| +++ (10<specific activity≦20) | 0.5 to 1 | CC(=O)OCC1(C)C2C[C@H](OC(=O)c3ccc(C#N)cc3)[C@@]3(C)Oc4cc(-c5cccnc5)oc(=O)c4[C@H](O)C3[C@@]2(C)CC[C@@H]1OC(=O)c1ccccc1 (stereo partly shown) [PRD121, 7-O-p-cyanobenzoyl-1,7-dideacetyl-1-O-benzoylpyripyropene A] | ≥ 540 | >9 | – | – |
| +++ (10<specific activity≦20) | 0.5 to 1 | CC12CO[C@@H](c3ccccc3)O[C@H]1CC[C@@]1(C)C2C[C@H](OC(=O)c2ccccc2)[C@@]2(C)Oc3cc(-c4cccnc4)oc(=O)c3[C@H](O)C12 (stereo partly shown) [PRD122, 1,11-O-benzylidene-7-O-benzoyl-1,7,11-trideacetylpyripyropene A] | ≥ 540 | >9 | – | – |
| ++++ (20<specific activity) | < 0.5 | CN(C)c1ccc([C@@H]2OCC3(C)C4C[C@H](OC(=O)c5ccc(C#N)cc5)[C@@]5(C)Oc6cc(-c7cccnc7)oc(=O)c6[C@H](O)C5[C@@]4(C)CC[C@@H]3O2)cc1 (stereo partly shown) [PRD123, 1,11-O-p-dimethylaminobenzylidene-7-O-p-cyanobenzoyl-1,7,11-trideacetylpyripyropene A] | ≥ 540 | >9 | – | – |
| +++ (10<specific activity≦20) | 0.5 to 1 | Cc1ccccc1[C@@H]1OCC2(C)C3C[C@H](OC(=O)c4ccc(C#N)cc4)[C@@]4(C)Oc5cc(-c6cccnc6)oc(=O)c5[C@H](O)C4[C@@]3(C)CC[C@@H]2O1 (stereo partly shown) [PRD125, 1,11-O-o-methylbenzylidene-7-O-p-cyanobenzoyl-1,7,11-trideacetylpyripyropene A] | ≥ 540 | >9 | – | – |
| +++ (10<specific activity≦20) | 0.5 to 1 | Cc1ccc([C@@H]2OCC3(C)C4C[C@H](OC(=O)c5ccc(C#N)cc5)[C@@]5(C)Oc6cc(-c7cccnc7)oc(=O)c6[C@H](O)C5[C@@]4(C)CC[C@@H]3O2)cc1 (stereo partly shown) [PRD126, 1,11-O-p-methylbenzylidene-7-O-p-cyanobenzoyl-1,7,11-trideacetylpyripyropene A] | ≥ 540 | >9 | – | – |

| Compound | Specific activity ((IC50 of the test compound)/(IC50 of PRD 043)) (ACAT2; [3]) | IC50 (ACAT2; [4]) [nM] | half-life at 6 μg/mL [1] [min] | Half-life [1] [h] | IC50 (ACAT2; [2]) [nM] | Specific activity ((IC50 of the test compound)/(IC50 of PRD 043)) (ACAT2; relative to PRD 043; given as number) |
| --- | --- | --- | --- | --- | --- | --- |
| CC(C)C(=O)OCC1(C)C2C[C@H](OC(=O)c3ccc(C#N)cc3)[C@@]3(C)Oc4cc(-c5cccnc5)oc(=O)c4[C@H](O)C3[C@@]2(C)CC[C@@H]1OC(=O)C(C)C (stereo partly shown) [PRD056, reference compound] | − (0.1≦specific activity<1) | – | ≥ 540 | >9 | > 10 | – |
| CC(=O)O[C@H]1CC[C@@]2(C)C(C[C@H](OC(=O)c3ccc(C#N)cc3)[C@@]3(C)Oc4cc(-c5cccnc5)oc(=O)c4[C@H](O)C23)C1(C)C(=O)O (stereo partly shown) [PRD069, 7-O-p-cyanobenzoyl-11-deacetoxymethyl-7-deacetyl-11-carboxy-pyripyropene A] | ++++ (20<specific activity) | < 0.5 | ≥ 540 | >9 | – | – |
| COC(=O)C1(C)C2C[C@H](OC(=O)c3ccc(C#N)cc3)[C@@]3(C)Oc4cc(-c5cccnc5)oc(=O)c4[C@H](O)C3[C@@]2(C)CC[C@@H]1OC(C)=O (stereo partly shown) [PRD070, 7-O-p-cyanobenzoyl-11-deacetoxymethyl-7-deacetyl-11-methoxy-carbonylpyripyropene A] | +++ (10<specific activity≦20) | 0.5 to 1 | > 540 | – | – | – |
| COc1ccc(CNC(=O)C2(C)C3C[C@H](OC(=O)c4ccc(C#N)cc4)[C@@]4(C)Oc5cc(-c6cccnc6)oc(=O)c5[C@H](O)C4[C@@]3(C)CC[C@@H]2OC(C)=O)c(OC)c1 (stereo partly shown) [PRD071, 7-O-p-cyanobenzoyl-11-deacetoxymethyl-7-deacetyl-11-(2,4-dimethoxybenzylamino)carbonylpyripyropene A] | ++++ (20<specific activity) | < 0.5 | ≥ 540 | >9 | – | – |
